{
  "source": "patent US20200217852A1",
  "about": "“Quantitation of Free and Total N-Acetylcysteine Amide and Its Metabolite N-Acetylcysteine in Human Plasma Using Derivatization and Electrospray LC-MS/MS” (NACUITY PHARMACEUTICALS, INC., priority 2019, published 2020)",
  "key": {"[1]": {"assay_type": "in vitro ADME", "settings": "human", "experimental": "Calibration standards (CS) were prepared by mixing CMPI-fortified control matrix (95 parts) with the respective spiking solution (5 parts) to make 50.0, 40.0, 20.0, 5.00, 2.50, 0.500, 0.100, and 0.050 μg/mL NAC/NACA pools which were stable for at least 80 days when stored at −20° C. and for 284 days when stored at −80° C. It was critical that CS pools be spiked quickly after CMPI fortification of the plasma, with the lowest concentration pools being spiked first, within 5-10 minutes of mixing plasma with CMPI.\nValidation. The method was validated according to regulatory guidances. Three independently prepared analytical runs were executed to test the linearity of the calibration curve and the precision and accuracy of measuring validation samples (over 4 concentrations). Additional runs to evaluate recovery, matrix factor/suppression effects, reinjection reproducibility, and carryover were also performed. The selectivity of the method was evaluated over 10 lots of human plasma and the same lots were spiked at the mid QC level to verify inter-subject precision and accuracy. Freeze/thaw, benchtop, and autosampler stabilities were determined. Precision and accuracy data were also generated in lipemic and hemolyzed plasma lots, and stability in whole blood was tested. Long run lengths (up to 192 samples over 2 plates) were evaluated to determine whether the analytical system was reliable over twice the expected duty cycle.\n(§1) All stability testing in plasma (benchtop, freeze/thaw, and long-term storage) was performed using QC samples prepared in both CMPI-fortified plasma as well as unfortified plasma. In this manner, the stabilities of both the oxidized thiols (in disulfide forms) and the thioether derivatives were tested, since it was assumed that unknown samples would likely contain some of both species. The CMPI-thioethers were stable for at least 5 freeze/thaw cycles and for at least 20 hours at room temperature, as compared to less than 1 hour for the underivatized free thiols. The oxidized thiols were stable for at least 5 freeze/thaw cycles and for at least 22 hours, as evidenced by their full recovery as thioethers when assayed using the total method. Stability was also tested in extracts, whether held for first injection or reinjected. Extracts were stable for over 90 hours when refrigerated. Precision and accuracy was acceptable in lipemic and hemolyzed plasma."}, "[2]": {"assay": "Stability of underivatized NAC and NACA thiol in plasma monitored directly by HILIC LC-MS/MS", "assay_type": "in vitro ADME", "settings": "human, room temperature, read-out: Half-lives for thiol disappearance", "experimental": "Half-lives for thiol disappearance were approximately 10 minutes at room temperature. Therefore, the inventors sought to stabilize NAC and NACA by derivatization. When plasma samples spiked with NAC and NACA were treated with TCEP and CMPI, the thiols were well recovered as the thioether derivatives.\nas §1"}},
  "note": "Like-named read-outs stand apart in the source and are kept apart here.",
  "data": [
    {"smiles": "CC(=O)N[C@@H](CS)C(=O)O", "note": "[NAC, N-acetyl-L-cysteine]", "values": [
      {"measurement": "Freeze/Thaw Stability", "setting": "[1]", "value": "At least 5 cycles, at either −20 °C or −80° C., either analyte"},
      {"measurement": "Benchtop Stability", "setting": "[1]; 20 hours", "value": "At least 20 hours at room temperature, either analyte"},
      {"measurement": "Stability of calibration standard pools", "setting": "[1]; 80 days", "value": "at least 80 days"},
      {"measurement": "Stability of calibration standard pools", "setting": "[1]; 284 days", "value": 284, "unit": "days"},
      {"measurement": "half-life", "setting": "[2]", "value": "~10", "unit": "min"}
    ]}
  ]
}
